Laboratory results taken from patent EP2607478A1, “Phenanthroline treated MSC” (Universiteit Twente, priority 2011, dated 2013).

Test system: MSCs
Experiment: Whole genome expression analysis (Illumina microarray) of treated MSCs
Type: cell-based, Human
Description: MSCs were seeded in T25 flasks at 5000 cells/cm^2 and allowed to attach overnight in proliferation medium. […] After 48 hours, RNA was isolated as described above. From 500 ng of RNA, cRNA was synthesized using the Illumina TotalPrep RNA amplification Kit (Ambion), according to the manufacturer's protocol and the quality of RNA and cRNA was verified on a Bioanalyzer 2100 (Agilent). Microarrays were performed using Illumina HT-12 v4 expression Beadchips, according to the manufacturer's protocol. Briefly, 750 ng of cRNA was hybridized on the array overnight after which the array was washed and blocked. Then, by addition of streptavidin Cy-3 a fluorescent signal was developed. Arrays were scanned on an Illumina iScan reader and raw intensity values were background corrected in GenomeStudio (Illumina). Further data processing and statistical testing were performed with R and Bioconductor statistical software (www.bioconductor.org), using package lumi. Raw intensity values were transformed using variance stabilization and a quantile normalization was performed. A linear modelling approach with empirical Bayesian methods, as implemented in Limma package (54), was applied for differential expression analysis of the resulting probe-level expression values. A gene list, containing only those genes with an absolute 1.5-fold change between different treatments, was uploaded to Ingenuity Pathway Analysis (IPA) software and used for core analysis. Pathways or networks with a p-value of 0.05 were considered statistically significant.

With `c1cnc2c(c1)ccc1cccnc12` [PHE, 1, 10-phenanthroline] the “logFC(D142_PHE - D142_BAS)” value (ProbeID ILMN_1827736, no gene name printed) was 2,01, the “logFC(D142_PHE - D142_BAS)” value (ProbeID ILMN_1843198, no gene name printed) was 4,02 and the “logFC(D142_PHE - D142_BAS)” value (ProbeID ILMN_1854469, no gene name printed) was -2,31. For the same molecule, the “logFC(D142_PHE - D142_BAS)” value (ProbeID ILMN_1862909, no gene name printed) was 2,60, the “logFC(D142_PHE - D142_BAS)” value (ProbeID ILMN_1890614, no gene name printed) was 3,60 and the “logFC(D142_PHE - D142_BAS) LDLR” value (ProbeID ILMN_2053415) was -2,22. The “logFC(D142_PHE - D142_BAS) PTGS2” value (ProbeID ILMN_2054297) was 2,59, the “logFC(D142_PHE - D142_BAS) GAS1” value (ProbeID ILMN_2062701) was -2,22 and the “logFC(D142_PHE - D142_BAS) GOLGA8B” value (ProbeID ILMN_2103547) was 2,29. The “logFC(D142_PHE - D142_BAS) EEF1A2” value (ProbeID ILMN_2108735) was 4,24, the “logFC(D142_PHE - D142_BAS) NPM3” value (ProbeID ILMN_2110252, PHE vs BAS) was -2,68 and the “logFC(D142_PHE - D142_BAS) CTHRC1” value (ProbeID ILMN_2117508, PHE vs BAS) was -3,58. For the same molecule, the “logFC(D142_PHE - D142_BAS) LRIG1” value (ProbeID ILMN_2128795) was 2,70, the “logFC(D142_PHE - D142_BAS) CYBASC3” value (ProbeID ILMN_2129505) was -2,00 and the “logFC(D142_PHE - D142_BAS) IGFBP5” value (ProbeID ILMN_2132982) was 2,36. For the same molecule, the “logFC(D142_PHE - D142_BAS) POL3S” value (ProbeID ILMN_2133187) was 2,59, the “logFC(D142_PHE - D142_BAS) PLIN2” value (ProbeID ILMN_2138765) was 3,41 and the “logFC(D142_PHE - D142_BAS) HIST2H2AA3” value (ProbeID ILMN_2144426) was 3,65. For the same molecule, the “logFC(D142_PHE - D142_BAS) TNC” value (ProbeID ILMN_2145670, PHE vs BAS) was -2,96, the “logFC(D142_PHE - D142_BAS) GBP1” value (ProbeID ILMN_2148785, PHE vs BAS) was -2,77 and the “logFC(D142_PHE - D142_BAS) SERPINB2” value (ProbeID ILMN_2150851) was 2,73. For the same molecule, the “logFC(D142_PHE - D142_BAS) SERPINB2” value (ProbeID ILMN_2150856) was 2,92, the “logFC(D142_PHE - D142_BAS) ALDH1B1” value (ProbeID ILMN_2150894, PHE vs BAS) was -3,56 and the “logFC(D142_PHE - D142_BAS) MNS1” value (ProbeID ILMN_2157240) was -2,02. For the same molecule, the “logFC(D142_PHE - D142_BAS) GPI” value (ProbeID ILMN_2173451) was 2,47, the “logFC(D142_PHE - D142_BAS) MT1E” value (ProbeID ILMN_2173611) was -2,20 and the “logFC(D142_PHE - D142_BAS) IL8” value (ProbeID ILMN_2184373) was 6,28. For the same molecule, the “logFC(D142_PHE - D142_BAS) PFKFB3” value (ProbeID ILMN_2186061) was 5,23, the “logFC(D142_PHE - D142_BAS) RRAD” value (ProbeID ILMN_2186137) was 3,18 and the “logFC(D142_PHE - D142_BAS) GDF15” value (ProbeID ILMN_2188862) was 4,56. For the same molecule, the “logFC(D142_PHE - D142_BAS) MELK” value (ProbeID ILMN_2212909) was -2,05, the “logFC(D142_PHE - D142_BAS) PGK1” value (ProbeID ILMN_2216852) was 2,97 and the “logFC(D142_PHE - D142_BAS) PTGR1” value (ProbeID ILMN_2225537) was 2,90. For the same molecule, the “logFC(D142_PHE - D142_BAS) SLAMF9” value (ProbeID ILMN_2227248) was 2,67, the “logFC(D142_PHE - D142_BAS) PCDH18” value (ProbeID ILMN_2229877, PHE vs BAS) was -2,41 and the “logFC(D142_PHE - D142_BAS) BEX1” value (ProbeID ILMN_2234697, PHE vs BAS) was -4,70. For the same molecule, the “logFC(D142_PHE - D142_BAS) LEPR” value (ProbeID ILMN_2234956, PHE vs BAS) was -2,85, the “logFC(D142_PHE - D142_BAS) KIAA0101” value (ProbeID ILMN_2285996, PHE vs BAS) was -3,27 and the “logFC(D142_PHE - D142_BAS) UBE2C” value (ProbeID ILMN_2301083) was -2,20. The “logFC(D142_PHE - D142_BAS) VCAM1” value (ProbeID ILMN_2307903, PHE vs BAS) was -5,09, the “logFC(D142_PHE - D142_BAS) WFDC3” value (ProbeID ILMN_2308903) was 2,87 and the “logFC(D142_PHE - D142_BAS) MAFF” value (ProbeID ILMN_2322375) was 3,04. For the same molecule, the “logFC(D142_PHE - D142_BAS) RORA” value (ProbeID ILMN_2322498) was 2,13, the “logFC(D142_PHE - D142_BAS) CALD1” value (ProbeID ILMN_2324002) was -2,11 and the “logFC(D142_PHE - D142_BAS) TXNRD1” value (ProbeID ILMN_2324421) was 2,30. For the same molecule, the “logFC(D142_PHE - D142_BAS) MSRB3” value (ProbeID ILMN_2332553) was -2,12, the “logFC(D142_PHE - D142_BAS) PORCN” value (ProbeID ILMN_2337058) was 3,30 and the “logFC(D142_PHE - D142_BAS) AK3L1” value (ProbeID ILMN_2338038) was 2,61. For the same molecule, the “logFC(D142_PHE - D142_BAS) METRNL” value (ProbeID ILMN_2342066) was 2,12, the “logFC(D142_PHE - D142_BAS) FMO3” value (ProbeID ILMN_2344283) was -2,27 and the “logFC(D142_PHE - D142_BAS) BIRC5” value (ProbeID ILMN_2349459, PHE vs BAS) was -2,71. For the same molecule, the “logFC(D142_PHE - D142_BAS) MAD1L1” value (ProbeID ILMN_2358069) was 2,09, the “logFC(D142_PHE - D142_BAS) TPM1” value (ProbeID ILMN_2360710) was -2,27 and the “logFC(D142_PHE - D142_BAS) VLDLR” value (ProbeID ILMN_2361862) was 3,53. The “logFC(D142_PHE - D142_BAS) SLC16A3” value (ProbeID ILMN_2364022) was 2,29, the “logFC(D142_PHE - D142_BAS) SMOX” value (ProbeID ILMN_2367258) was 2,05 and the “logFC(D142_PHE - D142_BAS) CXCR7” value (ProbeID ILMN_2371458) was 2,54. For the same molecule, the “logFC(D142_PHE - D142_BAS) MUC1” value (ProbeID ILMN_2371911) was 2,27, the “logFC(D142_PHE - D142_BAS) ATF3” value (ProbeID ILMN_2374865) was 2,39 and the “logFC(D142_PHE - D142_BAS) VEGFA” value (ProbeID ILMN_2375879) was 4,30. The “logFC(D142_PHE - D142_BAS) KCNK2” value (ProbeID ILMN_2376953, PHE vs BAS) was -3,27, the “logFC(D142_PHE - D142_BAS) PTPRF” value (ProbeID ILMN_2380163) was 2,36 and the “logFC(D142_PHE - D142_BAS) AKR1A1” value (ProbeID ILMN_2380771) was -2,14. For the same molecule, the “logFC(D142_PHE - D142_BAS) P4HA2” value (ProbeID ILMN_2381697) was 2,27, the “logFC(D142_PHE - D142_BAS) CA12” value (ProbeID ILMN_2382942) was 2,61 and the “logFC(D142_PHE - D142_BAS) ANGPTL4” value (ProbeID ILMN_2386444) was 3,59. The “logFC(D142_PHE - D142_BAS) EPSTI1” value (ProbeID ILMN_2388547, PHE vs BAS) was -2,93, the “logFC(D142_PHE - D142_BAS) PSMB8” value (ProbeID ILMN_2390299, PHE vs BAS) was -2,40 and the “logFC(D142_PHE - D142_BAS) UBE2E3” value (ProbeID ILMN_2390338) was -2,31. For the same molecule, the “logFC(D142_PHE - D142_BAS) FBLN2” value (ProbeID ILMN_2390919) was -2,30, the “logFC(D142_PHE - D142_BAS) TAGLN” value (ProbeID ILMN_2400935, PHE vs BAS) was -3,44 and the “logFC(D142_PHE - D142_BAS) FAM13A” value (ProbeID ILMN_2401258) was 2,84. For the same molecule, the “logFC(D142_PHE - D142_BAS) RIOK3” value (ProbeID ILMN_2404135) was 2,47, the “logFC(D142_PHE - D142_BAS) ARNTL” value (ProbeID ILMN_2405305) was 2,05 and the “logFC(D142_PHE - D142_BAS) PODXL” value (ProbeID ILMN_2413158) was 3,57. The “logFC(D142_PHE - D142_BAS) LOC100130790” value (ProbeID ILMN_3181489) was 3,33, the “logFC(D142_PHE - D142_BAS) LOC727803” value (ProbeID ILMN_3212373) was -2,02 and the “logFC(D142_PHE - D142_BAS) LOC730415” value (ProbeID ILMN_3228688) was 2,25. The “logFC(D142_PHE - D142_BAS) LOC390557” value (ProbeID ILMN_3233930) was 2,45, the “logFC(D142_PHE - D142_BAS) LOC100133609” value (ProbeID ILMN_3237270) was 2,75 and the “logFC(D142_PHE - D142_BAS) BEND5” value (ProbeID ILMN_3237448) was 2,26. For the same molecule, the “logFC(D142_PHE - D142_BAS) C4orf47” value (ProbeID ILMN_3237511) was 2,24, the “logFC(D142_PHE - D142_BAS) FBXL11” value (ProbeID ILMN_3237966) was 2,06 and the “logFC(D142_PHE - D142_BAS) DLGAP5” value (ProbeID ILMN_3239771) was -2,24. For the same molecule, the “logFC(D142_PHE - D142_BAS) HIST2H2AA4” value (ProbeID ILMN_3242900) was 3,75, the “logFC(D142_PHE - D142_BAS) FAM180A” value (ProbeID ILMN_3245418) was 2,34 and the “logFC(D142_PHE - D142_BAS) LOC730743” value (ProbeID ILMN_3247132, PHE vs BAS) was -2,35. The “logFC(D142_PHE - D142_BAS) GAPDHL6” value (ProbeID ILMN_3267451) was 2,90, the “logFC(D142_PHE - D142_BAS) LOC100132510” value (ProbeID ILMN_3280402) was 2,32 and the “logFC(D142_PHE - D142_BAS) LOC644237” value (ProbeID ILMN_3283772) was 2,73. The “logFC(D142_PHE - D142_BAS) LOC729708” value (ProbeID ILMN_3305475) was 2,12, the “logFC(D142_PHE - D142_BAS) LOC730246” value (ProbeID ILMN_3305949) was -2,06 and the “logFC(D142_PHE - D142_BAS) MIR1974” value (ProbeID ILMN_3308961) was 3,51.
